In ChEMBL document CHEMBL4732235, “Design, synthesis, and evaluation of transition-state analogs as inhibitors of the bacterial quorum sensing autoinducer synthase CepI” (Bioorg Med Chem Lett, 2021) one finds IC50, inhibition and Activity data, which are given here for two molecules.

Active and inactive are the calls of the source. The rule behind the calls is not given here.

Test [1] in a line: Inhibition of Burkholderia cenocepacia synthase CepI assessed as liberation of ACP thiol using SAM as substrate by DCPIP method.
For test [2], the system named is Burkholderia cenocepacia. The test is described as follows: Inhibition of Burkholderia cenocepacia synthase CepI assessed as liberation of ACP thiol using SAM as substrate at 100 uM by DCPIP method.
Test [3] deals with Burkholderia cenocepacia. The test is described as follows: Binding affinity to Burkholderia cenocepacia synthase CepI assessed as stabilization of protein in presence of trypsin at 50 uM by standard colorimetric trypsin assay.

As to `CCCCCCCC(=O)N[C@@H]1C[C@H](CSC[C@H]2O[C@@H](n3cnc4c(N)ncnc43)[C@H](O)[C@@H]2O)OC1=O`, the IC50 in test [1] is 100 µM. For the same molecule, the inhibition result in the test with Burkholderia cenocepacia [2] is “Active”.

In the case of `CCCCCCCC(=O)N[C@H]1C[C@@H](CSC[C@H]2O[C@@H](n3cnc4c(N)ncnc43)[C@H](O)[C@@H]2O)OC1=O`, the IC50 in test [1] amounted to 1 µM. For the same molecule, in the test with Burkholderia cenocepacia [2], the inhibition result was “Active”. In addition, the outcome in the test with Burkholderia cenocepacia [3] was Active.

The term IC50 denotes the concentration needed to halve the response being measured.
